Measured values published in patent publication US10941126B2, “Bridged bicycloalkyl-substituted aminothiazoles and their methods of use” (Temple University—Of The Commonwealth System of Higher …, priority 2017, dated 2021).

Legend:
panel of 250 kinases = assay: 250 kinome screening at 1 μM; type: biochemical, human
Protocol: (§1) HDAC inhibitory activity assays were performed using FLUOR DE LYS® HDAC fluorometric activity assay kit from Enzo following the manufacturer's instructions. GloMax®-Multi Detection System (Promega) was used to read the fluorescence signals. Histone methyltransferase and demethylase enzymatic assays were performed by BPS Bioscience at 10 μM in duplicates. Kinase enzymatic assays were performed by Nanosyn using microfluidic technology. 250 kinome screening was done in duplicates using MC180295 at 1 μM. IC50 curves against 10 CDKs were created for MC180295. The human kinome tree was annotated using the online Kinome Render software (Chartier, M., Chénard, T., Barker, J., and Najmanovich, R. (2013). PeerJ 1, e126). Isotope kinase assay was performed using previously described methods (Garriga, J., Peng, J., Parreño, M., Price, D. H., Henderson, E. E., and Graña, X. (1998). Oncogene 17, 3093-3102) using recombinant active full-length CDK9/CyclinT1 (Millipore, 14-685) and SMARCA4 (Abcam, ab82237) in the presence or absence of CDK9 inhibitors.

GSK-3a = target: T1, GSK-3a (Homo sapiens, UniProt P49840); assay: 250 kinome screening at 1 μM; type: biochemical
T1 construct: Nanosyn (contract assay)
Protocol: as §1

GSK-3β = target: T2, GSK-3β (Homo sapiens, UniProt P49841); assay: 250 kinome screening at 1 μM; type: biochemical
T2 construct: Nanosyn (contract assay)
Protocol: as §1

SW48 and HCT116 cells = assay: qPCR for ERV expression; type: cell-based, human; conditions: Four-day treatment
Protocol: Total RNA was extracted using TRIzol reagent (Invitrogen) following the manufacturer's protocol and RNA concentrations were measured using Nanodrop. cDNAs were synthesized using High Capacity cDNA Reverse Transcription Kit (ThermoFisher) and qPCR was performed using either ready-made TaqMan® assays or SYBR-green using custom-designed primers. All the data were analyzed using Applied Biosystems software (StepOne™ Software V2.3). For all experiments, relative expression levels of the target genes were determined by calculating the 2^−ΔΔCt values. All experiments were performed at least in triplicates. Either GAPDH or 18S rRNA was used as an internal normalization control for protein coding genes. RPLPO was used as an internal normalization control for ERVs. All SYBR-green primers were described previously and are listed in Table 1 along with TaqMan® probes used.

YB5 cells = assay: GFP reactivation in YB5 cells (flow cytometry); type: cell-based, human; conditions: YB5 cells, one-time 4-day treatment
SMARCA4 = assay: Phosphoproteomics (LC-MS/MS) in YB5 cells; type: cell-based, human; conditions: 500 nM, 4 hr
Protocol: YB5 cells were treated with or without 500 nM MC180295 for 4 hours. Nuclear fraction was enriched using a hypotonic lysis buffer as previously described (Boden, G., Homko, C., Barrero, C. A., Stein, T. P., Chen, X., Cheung, P., Fecchio, C., Koller, S., and Merali, S. (2015), Sci Transl Med 7, 304-307). Proteins from the nuclear fraction were extracted with M-PER Mammalian Protein Extraction Reagent (Thermo Scientific, #78501) in the presence of protease and phosphatase inhibitors (Halt™ Protease Inhibitor Cocktail, #87785 and Halt™ Phosphatase Inhibitor Single-Use Cocktail, #78428). Phosphoproteins were enriched from 500 μg of nuclear extracted proteins, using a phosphoprotein purification kit (QIAGEN, #37101). Both samples were processed using in-StageTip method for digestion and peptide purification before performing LC-MS/MS proteomics analysis. The mass spectrometry proteomics data have been deposited to the ProteomeXchange Consortium via the PRIDE (Vizcaino, J. A., Csordas, A., del-Toro, N., Dianes, J. A., Griss, J., Lavidas, I., Mayer, G., Perez-Riverol, Y., Reisinger, F., Tement, T., et al. (2016). 2016 update of the PRIDE database and its related tools. Nucleic Acids Res 44, D447-456) partner repository with the dataset identifier PXD008040. […]

T1 sequence (P49840 whole entry): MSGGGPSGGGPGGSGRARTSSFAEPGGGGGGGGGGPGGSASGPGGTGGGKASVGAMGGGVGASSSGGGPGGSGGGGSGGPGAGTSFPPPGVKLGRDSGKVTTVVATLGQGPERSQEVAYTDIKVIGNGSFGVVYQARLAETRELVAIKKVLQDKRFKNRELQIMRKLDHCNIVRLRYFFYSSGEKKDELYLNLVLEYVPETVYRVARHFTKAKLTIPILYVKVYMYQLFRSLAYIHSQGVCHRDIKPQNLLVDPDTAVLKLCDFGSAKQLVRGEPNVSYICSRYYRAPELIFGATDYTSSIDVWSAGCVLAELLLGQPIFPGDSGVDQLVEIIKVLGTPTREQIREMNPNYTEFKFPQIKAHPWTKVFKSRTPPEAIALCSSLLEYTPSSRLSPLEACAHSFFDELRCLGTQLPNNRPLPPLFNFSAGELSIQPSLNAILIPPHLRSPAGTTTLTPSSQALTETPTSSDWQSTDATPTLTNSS
T2 sequence (P49841 whole entry): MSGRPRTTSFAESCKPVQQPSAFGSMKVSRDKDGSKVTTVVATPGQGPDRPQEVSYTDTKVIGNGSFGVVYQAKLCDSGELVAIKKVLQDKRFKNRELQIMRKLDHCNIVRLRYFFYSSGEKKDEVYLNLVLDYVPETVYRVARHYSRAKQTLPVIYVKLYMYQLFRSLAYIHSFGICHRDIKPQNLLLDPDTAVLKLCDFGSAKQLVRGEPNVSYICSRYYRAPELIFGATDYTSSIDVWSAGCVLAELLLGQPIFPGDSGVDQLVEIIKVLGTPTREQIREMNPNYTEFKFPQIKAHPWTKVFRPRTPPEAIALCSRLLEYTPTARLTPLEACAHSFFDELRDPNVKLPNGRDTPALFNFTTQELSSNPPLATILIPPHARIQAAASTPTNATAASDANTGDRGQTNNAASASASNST

inhibition (GSK-3a): inhibited
inhibition (GSK-3β): inhibited
Compound: Nc1nc(N[C@H]2CC3CCC2C3)sc1C(=O)c1ccccc1[N+](=O)[O-] (stereo partly drawn) [MC180295]
selectivity against a panel of 250 kinases (panel of 250 kinases): highly selective against CDKs
ERV expression (SW48 and HCT116 cells): activated the expression of several ERVs
concentration at which active (GFP re-expression) (YB5 cells): 50 nM
phosphorylation of SMARCA4 serine/threonine residues (SMARCA4): dephosphorylated
